Results taken from article PMC6611044, “Pharmacokinetic analysis of new synthetic antimalarial N-251” (Tropical Medicine and Health, 2019).
Values after ≈ are worked out from the molar mass of the structure shown. Values joined by “and” are separate entries in the source; they are usually repeats but may differ in a detail not shown here. Identical values can stand only once. “Also recorded” adds a separate entry of the source. Like-named read-outs stand apart in the source and are kept apart here.

Assays:
[1] = Solubility; format: physicochemical; conditions: water
[2] = cited from earlier work
[3] = tested on: rodent malaria parasites; design: method as in PMID 21501696; conditions: 68 mg/kg three times a day for 3 days, cited from earlier work
[4] = tested on: P. falciparum (FCR-3 strain); design: method as in PMID 21501696; conditions: P. falciparum FCR-3 strain in vitro, cited from earlier work
[5] = Multiple p.o. dosing plasma concentration-time profile and simulation; format: in vivo, mice
Method: N-251 was administered p.o. at a dose of 68 mg/kg every 8 h for 2 days in normal-fed mice. Blood sample was collected at 15, 30, and 45 min as well as 1, 1.5, 2, 3, 4, 6, 8, 10, 16, 18, 24, 26, 32, 34, 40, 42, 44, 46, and 48 h after administration. Data were expressed as mean (n = 6) with the bar indicating the SD value. Simulation of plasma concentration-time profile after multiple dosing was performed by utilizing the parameters obtained via fitting analysis for the plasma concentration-time curve after a single p.o. dose of N-251 based on the two-compartment model with the first-order absorption process. The equation and parameters used for the simulation were as follows: Cp=X⋅EXP−ka⋅t−tlag+Y⋅EXP−α⋅t−tlag+Z⋅EXP−β⋅t−tlag,
where ka and tlag are absorption rate constant and lag time, respectively, and X, Y, Z, α, and β are the hybrid parameters. Their values used for simulation were as follows: X = 8422 ng/mL/kg, ka = 0.845 h^−1, Y = − 8419 ng/mL/kg, α = 1.09 h^−[…], Z = 5.29 ng/mL/kg, β = 1.06 h^−1, and lag time = 0.330.

[6] = tested on: P. berghei; design: method as in PMID 11428929; conditions: 4-day suppressive test, cited from earlier work
[7] = PK analysis after i.v. administration of N-251 in fasted mice; format: in vivo; conditions: for MRTiv / Vd1 / Vd2 / AUC / k el / clearance / Vd: fasted mice; for A (hybrid parameter) / B (hybrid parameter) / a (hybrid parameter) / b (hybrid parameter): two-compartment fit; for half-life / AUC / k el / clearance / Vd: male, ICR, mouse, plasma; for clearance: read-out: CLtotal (converted); for Vd: read-out: Vdss
Method: We used healthy 5-week-old ICR male mice that were subjected to overnight fasting since the night a day before the test. To analyze N-251 after i.v. administration, doses of 25, 10, and 5 mg/kg were used for each group. The blood sample was collected at 2, 5, 15, and 30 min as well as 1, 2, 4, and 6 h post-dose, and a single blood sample was collected from a single mouse. Preparation of plasma samples of N-251 was described in the “Methods” section. Data were expressed as mean (n = 6) ± standard deviation (SD). Plasma concentration-time profiles after i.v. administration were fitted to a two-compartment model using the non-linear least-squares regression program MULTI [17]. Plasma concentration (Cp) was expressed using the following equation: Cp=A⋅EXP−α⋅t+B⋅EXP−β⋅t.
where A and B are D ⋅ (α − k21)/Vd1/(α − β) and D ⋅ (k21 − β)/Vd1/(α − β), respectively. D, Vd1, and k21 are the dose, apparent distribution volume of central compartment, and distribution rate constant from the peripheral to central compartment, respectively, and α and β represent the slopes of α and β phases of log Cp, respectively. PK parameters were calculated as follows: AUC = A/α +B/β; total body clearance, CLtotal =D/AUC; elimination rate constant, kel = (Aβ + Bα)/(A + B); apparent distribution volume of peripheral compartment, Vd2 =k12/k21·Vd1; distribution volume at steady state, Vdss = Vd1 + Vd2; and mean residence time (MRT) = (k12+ k21)/(kel·k21).

[8] = Multiple p.o. dosing plasma concentration-time profile and simulation; format: in vivo, mice; conditions: 68 mg/kg three times a day for 3 days
[9] = PK analysis after p.o. administration of N-251 in fasted mice; format: in vivo; conditions: for AUC: 0 to infinity
Method: To analyze the absorption kinetics of N-251, it was orally administered to fasted mice with dose of 210, 100, 68, 50, and 30 mg/kg. Blood sample was collected at 15 and 30 min as well as 1, 1.5, 2, 3, 4, and 6 h post-dose. Data were expressed as the mean (n = 6) ± SD. AUC and MRT after p.o. administration in fasting mice were calculated based on the trapezoidal rule. F was calculated with an AUC of 10 mg/kg of i.v. dose. The highest observed concentration was used as Cmax, and the time for Cmax was defined as Tmax.

[10] = Effects of food and parasite infection on absorption of N-251 after p.o. administration; format: in vivo, mice; conditions: p.o. 68 mg/kg; for F: vs AUC of 10 mg/kg i.v.
Method: Normal-fasted and normal-fed mice were used for the analysis. Parasite-infected mice were prepared before the analysis, and a 0.61% infection rate in P. berghei-infected mice under fasting condition was used. The single p.o. dose of N-251 was 68 mg/kg. Blood sample was collected 15, 30, and 45 min as well as 1, 1.5, 2, 3, 4, and 6 h post-dose. Data were expressed as mean with the bar indicating the SD value.

[11] = fit of single p.o. dose, two-compartment model with first-order absorption
[12] = i.v. 5, 10 and 25 mg/kg, range over doses
[13] = male, ICR, mouse, plasma, po, p.o. 30 mg/kg
[14] = male, ICR, mouse, plasma, po, p.o. 50 mg/kg
[15] = male, ICR, mouse, plasma, po, p.o. 68 mg/kg
[16] = male, ICR, mouse, plasma, po, p.o. 100 mg/kg
[17] = male, ICR, mouse, plasma, po, p.o. 210 mg/kg
[18] = ICR, mouse, plasma, po, 68 mg/kg, normal-fed mice

For `OCCCCCCC1COOC2(CCCCCCCCCCC2)OOC1` [N-251, 6-(1,2,6,7-tetraoxaspiro [7.11]nonadec-4-yl)hexan-1-ol], the solubility [1] is given as 0.007 mg/mL (≈ 0.0188 mM), the “solubility in Cremophor EL” value ([2]; Cremophor EL) is given as 65 mg/mL (≈ 174 mM) and the “solubility in olive oil” value ([2]; olive oil) is given as 92 mg/mL (≈ 247 mM). For the same molecule, the “period without parasites after the last administration” value ([3]; infected mice) was 2 months, the “time after treatment at which parasites were not observed in the bloodstream” value ([3]; infected mice) was 36 h and the “time after which malaria parasites decreased” value ([3]; infected mice) was 16 h. The “cure of infected mice” value [3] was “completely cured without recrudescence”, the EC50 ([4]; equivalent of 8.6 ng/mL, read-out: EC50) was 23 nM and the EC50 [4] was 8.6 ng/mL. The “minimal plasma concentration (Cmin)” value ([5]; 68 mg/kg p.o. every 8 h for 2 days, normal-fed mice, except 8 h after the first administration) was “greater than 10 ng/mL”, the “accumulation on multiple oral dosing” value ([5]; 68 mg/kg p.o. three times per day for 2 days, normal-fed mice) was “did not accumulate; also recorded: does not accumulate” and the “X (hybrid parameter used for simulation)” value [5, 11] was 8422 ng/mL/kg. The “Z (hybrid parameter used for simulation)” value [5, 11] was 5.29 ng/mL/kg, the “ka (absorption rate constant)” value [5, 11] was 0.845 h⁻¹ and the lag time [5, 11] was 0.330. The “α (hybrid parameter used for simulation)” value [5, 11] was 1.09 ng/h/mL/kg, the “β (hybrid parameter used for simulation)” value [5, 11] was 1.06 h⁻¹ and the ED50 ([6]; i.v.) was 22 mg/kg. For the same molecule, the ED50 ([6]; p.o.) was 15 mg/kg, the MRTiv ([7]; i.v. 5 mg/kg) was 1.12 h and the Vd1 ([7]; i.v. 5 mg/kg) was 3.23 L/kg. For the same molecule, the Vd2 ([7]; i.v. 5 mg/kg) was 1.62 L/kg, the “A (hybrid parameter)” value ([7]; i.v. 5 mg/kg) was 1453.6 ± 465.9 ng/mL and the “B (hybrid parameter)” value ([7]; i.v. 5 mg/kg) was 92.5 ± 182.0 ng/mL. For the same molecule, the “a (hybrid parameter)” value ([7]; i.v. 5 mg/kg) was 1.62 ± 0.70 h⁻¹, the “b (hybrid parameter)” value ([7]; i.v. 5 mg/kg) was 0.35 ± 0.37 h⁻¹ and the MRTiv ([7]; i.v. 10 mg/kg) was 0.96 h. The Vd1 ([7]; i.v. 10 mg/kg) was 1.58 L/kg, the Vd2 ([7]; i.v. 10 mg/kg) was 2.35 L/kg and the “A (hybrid parameter)” value ([7]; i.v. 10 mg/kg) was 5922.7 ± 1731.5 ng/mL. For the same molecule, the “B (hybrid parameter)” value ([7]; i.v. 10 mg/kg) was 410.0 ± 253.8 ng/mL, the “a (hybrid parameter)” value ([7]; i.v. 10 mg/kg) was 3.84 ± 1.23 h⁻¹ and the “b (hybrid parameter)” value ([7]; i.v. 10 mg/kg) was 0.46 ± 0.15 h⁻¹. It also gave an MRTiv ([7]; i.v. 25 mg/kg) of 0.86 h, a Vd1 ([7]; i.v. 25 mg/kg) of 1.36 L/kg and a Vd2 ([7]; i.v. 25 mg/kg) of 1.52 L/kg. For the same molecule, the “A (hybrid parameter)” value ([7]; i.v. 25 mg/kg) was 17,738.1 ± 1700.0 ng/mL, the “B (hybrid parameter)” value ([7]; i.v. 25 mg/kg) was 690.4 ± 341.6 ng/mL and the “a (hybrid parameter)” value ([7]; i.v. 25 mg/kg) was 3.12 ± 0.55 h⁻¹. The “b (hybrid parameter)” value ([7]; i.v. 25 mg/kg) was 0.39 ± 0.10 h⁻¹, the T1/2α [7, 12] was 0.18 to 0.429 h and the distribution volume [7, 12] was 2.88 to 4.85 L/kg. It also gave a half-life ([7]; other: i.v. and p.o. administration, i.v. and p.o. administration, read-out: half-life) of less than 2 h, an AUC ([7]; iv, i.v. 5 mg/kg) of 1160 ng·h/mL and a k el ([7]; iv, i.v. 5 mg/kg) of 0.000369 s⁻¹. For the same molecule, the clearance ([7]; iv, i.v. 5 mg/kg) was 71.7 mL/min/kg, the Vd ([7]; iv, i.v. 5 mg/kg) was 4.85 L/kg and the AUC ([7]; iv, i.v. 10 mg/kg) was 2430 ng·h/mL. The k el ([7]; iv, i.v. 10 mg/kg) was 0.000722 s⁻¹, the clearance ([7]; iv, i.v. 10 mg/kg) was 68.5 mL/min/kg and the Vd ([7]; iv, i.v. 10 mg/kg) was 3.93 L/kg. The AUC ([7]; iv, i.v. 25 mg/kg) was 7460 ng·h/mL, the k el ([7]; iv, i.v. 25 mg/kg) was 0.000686 s⁻¹ and the clearance ([7]; iv, i.v. 25 mg/kg) was 55.8 mL/min/kg. For the same molecule, the Vd ([7]; iv, i.v. 25 mg/kg) was 2.88 L/kg, the half-life ([7]; iv, i.v. 5, 10 and 25 mg/kg, range over doses, read-out: T1/2β) was 1.5 to 1.99 h and the “plasma concentration maintained for 72 h” value [8] was “more than 10 ng/mL”. It also gave a Tmax ([9]; ICR, mouse, plasma, po, every group of dose (30-210 mg/kg)) of 2 h, a bioavailability ([9]; ICR, mouse, plasma, po, p.o. administration, over doses 30-210 mg/kg, read-out: bioavailability (F)) of roughly 23% and a Cmax [9, 13] of 634 ± 129 ng/mL. For the same molecule, the Tmax [9, 13] was 2 h, the AUC [9, 13] was 1570 ng·h/mL and the Cmax [9, 14] was 1360 ± 799 ng/mL. For the same molecule, the Tmax [9, 14] was 2 h, the AUC [9, 14] was 2570 ng·h/mL and the Cmax [9, 15] was 1680 ± 811 ng/mL. For the same molecule, the Tmax [9, 15] was 2 h, the AUC [9, 15] was 3770 ng·h/mL and the Cmax [9, 16] was 2460 ± 802 ng/mL. For the same molecule, the Tmax [9, 16] was 2 h, the AUC [9, 16] was 5890 ng·h/mL and the Cmax [9, 17] was 4890 ± 1190 ng/mL. For the same molecule, the Tmax [9, 17] was 2 h, the AUC [9, 17] was 15200 ng·h/mL and the MRTpo ([9]; p.o. 30 mg/kg) was 2.45 h. It also gave an F ([9]; p.o. 30 mg/kg, vs AUC of 10 mg/kg i.v.) of 0.2156, an MRTpo ([9]; p.o. 50 mg/kg) of 2.49 h and an F ([9]; p.o. 50 mg/kg, vs AUC of 10 mg/kg i.v.) of 0.2110. It also gave an MRTpo ([9]; p.o. 68 mg/kg) of 2.46 h, an F ([9]; p.o. 68 mg/kg, vs AUC of 10 mg/kg i.v.) of 0.2277 and an MRTpo ([9]; p.o. 100 mg/kg) of 2.46 h. The F ([9]; p.o. 100 mg/kg, vs AUC of 10 mg/kg i.v.) was 0.2419, the MRTpo ([9]; p.o. 210 mg/kg) was 2.74 h and the F ([9]; p.o. 210 mg/kg, vs AUC of 10 mg/kg i.v.) was 0.2982. For the same molecule, the F ([9]; p.o. between 30 and 100 mg/kg) was “approximately 0.22”, the AUC ([10]; ICR, mouse, plasma, po, 68 mg/kg, P. berghei-infected (0.61%) fasted mice) was 3270 ng·h/mL and the Cmax ([10]; ICR, mouse, plasma, po, 68 mg/kg, P. berghei-infected (0.61%) fasted mice, read-out: Cmax) was 1770 ± 1650 ng/mL. It also gave a Cmax ([10]; ICR, mouse, plasma, po, 68 mg/kg, normal-fasted mice (control), read-out: Cmax) of 1680 ng/mL, an AUC [10, 18] of 2280 ng·h/mL and a Tmax [10, 18] of 1.5 h. For the same molecule, the Cmax ([10]; ICR, mouse, plasma, po, 68 mg/kg, normal-fed mice, read-out: Cmax) was 953 ng/mL, the “AUC in fed mice relative to fasted mice” value [10] was “about 60%” and the “Cmax in fed mice relative to normal-fasted mice” value [10] was 57%. For the same molecule, the F ([10]; P. berghei-infected (0.61%) fasted mice) was 0.1978, the MRTpo ([10]; normal-fed mice) was 3.01 h and the F ([10]; normal-fed mice) was 0.1379. The Cmax ([10]; normal-fed mice, 68 mg/kg) was 950 ng/mL and 952.50 ± 332.49 ng/mL.
